One assay deals with Cortical cells. Description: Cell death of cortical cells by EthD-1 staining. The class given is cell-based, rat. The settings on record: concentration-response curves. The protocol: Tissue culture: Mixed neuronal and glial cultures were prepared from embryonic day-18 rat cerebral cortices (Sprague-Dawley, Zivic Miller). Briefly, the cerebral cortices were dissected and enzymatically dissociated by incubation in Ca^++-, Mg^++-free Hank's balanced salt solution (HBSS) supplemented with 10 mM HEPES and 0.25% trypsin for 20 min. at 37° C. The tissue was rinsed and dispersed into single cell suspension by gentle passage through a fire polished Pasteur pipette. The cell suspension was centrifuged and resuspended in Minimum Essential Media (MEM), containing Earle's salts supplemented with 3 g/L glucose, 5% horse serum and 5% fetal bovine serum (growth media). […]
Neurotoxicity studies: Neurotoxicity was determined by the measurement of LDH released in the supernatant media as previously described (Patel et al, Toxicol. Appl. Pharmacol. 115:124 (1991) and Neurotoxicology 14:35 (1992)). LDH was measured by the method of Vassault, Lactate dehydrogenase. […] Briefly, the cells were washed with HBSS, loaded with 20 μM EthD-1 for 30 min,. rinsed and viewed through fluorescence optics. The number of dead cells labeled with EthD-1 were counted in 4-6 randomly selected fields, the numbers averaged to give an estimate of cell death and the experiment was repeated 3 times.

The test system of a further assay is J774 macrophages. Nature of the assay: Nitrite/nitrate production in J774 macrophages. The class given is cell-based. The following applies: for inhibition of LPS-induced nitrite/nitrate accumulation: LPS 10 μg/ml; for inhibition of nitrite/nitrate accumulation: LPS and IFN. The procedure: Cell culture: J774 macrophages were cultured in DMEM medium, supplemented with L-glutamine (3.5 mmol/L) and 10% fetal calf serum. Cells were cultured in 96-well plates (200 μl medium/well) until confluence. To induce the inducible isoform of nitric oxide synthase (iNOS), fresh culture medium containing E. coli LPS (011:B4, 10 μg/ml) alone or in combination with murine γ-interferon (γ-IFN, 10 U/ml) was added in the presence or absence of the NOS inhibitor, the SOD mimetic of the combination of the two compounds for 24 h. Moreover, cells were exposed to the NO donor compounds S-nitroso-N-acetyl-DL-penicillamine (SNAP) (3 mM) and diethylamine:NO NONOate (DNO) (3 mM) for 24 h or to authentic peroxynitrite (1 mM) for 1 h). Nitride/nitrate concentration in the medium and mitochondrial respiration were then measured as described below.
Measurement of nitrite/nitrate production: Nitride/nitrate production, an indicator of NO synthesis, was measured in the supernatant. First, nitrate in the culture medium was reduced to nitrite by incubation with nitrate reductase (670 mU/ml) and NADPH (160 μM) at room temperature for 2 h. After 2 h, nitrite concentration in the samples were measured by the Griess reaction, by adding 100 μl of Griess reagent (1% sulfanilamide and 0.1% naphthylethylenediamide in 5% phosphoric acid) to 100 μl samples of conditioned medium. The optical density at 550 nm (OD550) was measured using a Spectramax 250 microplate reader (Molecular Devices, Sunnyvale, Calif.) Nitrate concentrations were calculated by comparison with OD550 of standard solutions of sodium nitrate prepared in culture medium. All measurements were corrected for the interference of MnTBAP at this wavelength.

In the case of “Mn(III) tetrakis (4-benzoic acid)porphyrin [MnTBAP]”, the “neuroprotective effects against PQ^++, NMDA and KA toxicities” value in the assay on Cortical cells was “markedly increased neuroprotective effects in comparison to ZnTBAP”. For the same substance, the “nitrite/nitrate formation in the presence of L-NMA” value with J774 macrophages is “no additional effect”. Further, in the assay on J774 macrophages (100 μM), the “inhibition of LPS-induced nitrite/nitrate accumulation” value is listed as 63% and the “inhibition of nitrite/nitrate accumulation” value was determined as 25%. For the same substance, in the assay on J774 macrophages (300 μM), the “nitrite/nitrate accumulation in response to DNO” value is on record as “slight inhibition”, the “nitrite/nitrate accumulation in response to SNAP” value is given as “did not inhibit”, the “inhibition of LPS-induced nitrite/nitrate accumulation” value amounted to 86% and the “inhibition of nitrite/nitrate accumulation” value was determined as 61%. The “change of inhibition of nitrite/nitrate accumulation when applied 6 h after LPS” value with J774 macrophages (LPS-stimulated macrophages) was “more than 50%”.

These data come from patent US6583132B1, “Oxidant scavengers” (Duke University, priority 1993, dated 2003).
